# Patent publication US6071896A, “Suppression of thromboxane levels by percutaneous administration of aspirin” (Gundersen Clinic, Ltd., priority 1998, dated 2000)
# Where “and” joins values, the source holds several entries; their conditions need not be identical. Equal entries are not always repeated. Entries after “also recorded” stand apart in the source; their conditions may differ.
# Tests used:
# [1] = system: PGI2 biosynthesis; assay: Urinary 2,3-dinor-6-keto-PGF1a (PGI-M) excretion, dermal aspirin, Example 2; assay type: in vivo, human; details: for Urinary PGI-M excretion, peak decrease (day 4): p=0.074 by ANOVA (not significant)
# Procedure: (§1) Only healthy male and female volunteers were studied. The subjects were asked to avoid aspirin and any other cyclooxygenase inhibitors for the 10 days before and throughout the period of investigation. Aspirin (acetyl salicylic acid, USP) powder was dissolved in propylene glycol and either isopropyl alcohol or ethanol (1.7:1 v/v) to a final concentration of 94 mg/ml. […] The aspirin preparation was made daily immediately prior to its application Volunteers attended the clinic where the preparation was applied and were asked not to wash the area for at least 12 hours. The aspirin solution was applied to the forearm and upper arm over a 15 min interval. Volunteers received aspirin 250 mg (n=4), aspirin 750 mg (n=6) or vehicle (n=6) for 10 days and were followed for 8 days following drug withdrawal. The volunteers were aged 31-56 years, with equal numbers of male and females in each treatment group.
# (§2) Blood without anticoagulant was obtained for serum TXB2, the stable metabolite of TXA2, prior to and at intervals during and following aspirin administration. The blood was allowed to clot in glass at 37° C. for 60 min and the serum removed and stored at -20° C. until analyzed. Urine was collected over 24 hours at corresponding times for measurement of 2,3-dinor-TXB2 (TX-M) and 2,3-dinor-6-keto-PGF1a (PGI-M), major enzymatic metabolites of TXA2 and PGI2, respectively [Lawson et al., Analyt. Biochem. 150:463 (1985); FitzGerald et al., N. Engl. J. Med. 310: 1065 (1984)]. Excretion of these products is an index of the in vivo formation of their parent compounds [FitzGerald et al., supra; Reilly and Fitzgerald, Blood 69: 180 (1987)]. Serum TXB2 and urinary metabolites were determined by negative ion-chemical ionization, gas chromatography-mass spectrometry (NICI-GCMS) using authentic deuterated standards, as previously described [Braden et al., supra].
# [2] = system: platelet cyclooxygenase; assay: Serum TXB2 during and after dermal aspirin (index of platelet cyclooxygenase); assay type: in vivo, human
# From the text: In studying the effects of the methods of the present invention platelet cyclooxygenase activity was used as a measure of aspirin bioavailability, in addition to plasma drug levels. […] Inhibition of urinary TX-M followed a similar pattern. TX-M is a major enzymatic metabolite of TXB2 and its excretion is an index of TXA2 biosynthesis in vivo. In contrast, the vehicle alone had no effect on serum TXB2 or urinary TX-M. Following withdrawal of therapy, serum TXB2 and TX-M recovered gradually over a period of days. This is consistent with inhibition of platelet cyclooxygenase in vivo. As the enzyme is inhibited irreversibly, recovery of platelet TXA2 biosynthesis parallels the formation of new platelets, a process that has a half-life of 5 days.
# as §1, §2
# [3] = system: TXA2 biosynthesis; assay: Urinary 2,3-dinor-TXB2 (TX-M) excretion, dermal aspirin, Example 2; assay type: in vivo, human
# Procedure: as §1, §2
# [4] = system: skin; assay: Skin reactions and histology after dermal aspirin; assay type: in vivo, human
# [5] = system: thromboxane-B2; assay: Thromboxane (thromboxane-B2) blood levels after topical aspirin, Example 1; assay type: in vivo, human
# Procedure: Five healthy adult volunteers (3 male, 2 female) were studied. Each refrained from ingesting oral aspirin for two weeks prior to study. Prior to treatment in accordance with the present invention, baseline thromboxane levels and hemoccults were obtained.
# Thromboxane levels were measured by assaying for blood levels of thromboxane-B2 in accordance with the method described in Braden et al., Circulation 82:178 (1990). Thromboxane levels can also be measured in either blood or urine according to known methods which include those without limitation disclosed in the following references: Hirsh et al., supra; Robertson et al., N. Engl. J. Med. 304:998 (1981); Pedersen et al., N. Engl. J. Med. 311:1206 (1984); Patrignani et al., J. Clin. Invest. 69:1366 (1982); Preston et al., 304:76 (1981); Hirsh et al., N. Engl. J. Med. 304:685 (1981).
# A preparation of aspirin in isopropyl alcohol and propylene glycol was prepared by mixing "Aspirsol"™ topical aspirin (NDC54102-001-01; commercially available from TERRI Pharmaceuticals, Inc., PO Box 6454, Kingwood, Tex. 77325) in accordance with the package instructions except that 8 ml instead of 10 ml of the suspending solution was used. The resulting solution contained approximately 9% aspirin rather than the 7-8% indicated on the package label.
# After base levels of thromboxane had been measured, the aspirin solution was first applied on the morning of Day 1 to the skin of the human subjects within an hour of mixing by rubbing the aspirin solution on the arms and/or chest of the subject. The application was repeated with freshly prepared solution for each of four additional mornings (Days 2-5) in the same manner. Between applications the subjects followed their normal schedule of bathing and showering. Eight hours after the fifth application (on Day 5) blood was drawn for salicylate levels and thromboxane levels to be determined. With one subject, blood was drawn for TXA2 levels every day just before application of a new aspirin solution (i.e., approximately 24 hours after application of the previous aspirin solution). Hemoccults were also tested.
# Two of the subjects continued daily application for another five days (total ten days). For Days 6 and 7, aspirin solutions freshly prepared as described above were used. Beginning with Day 8, a different aspirin preparation was used. This second preparation was prepared by crushing aspirin tablets containing approximately 975 mg aspirin to form a powder. The powder was then formed into a paste with approximately 2 ml of distilled water. This paste was then mixed with 4 ml propylene glycol and 4 ml ethanol to produce approximately 10 ml of a cloudy solution. This cloudy solution was then filtered to remove excipients and other insoluble material found in the crushed aspirin tablets. After filtering, approximately 10 ml of a clear solution was obtained which contained approximately 9% aspirin. 8 ml of the resulting solution was used in each application. This second solution was applied to the two continuing subjects as previously described. Salicylate and thromboxane levels were checked after the tenth day.
# [6] = physchem; assay type: physicochemical
# [7] = system: pregnancy-induced hypertension and preeclamptic toxemia; details: daily doses, third trimester, women at high risk; cited from earlier work
# [8] = highest dose of dermal aspirin (750 mg/day)
# [9] = Subject 1, baseline 401, about 24 h after previous application
smiles,measurement,setting,value
"CC(=O)Oc1ccccc1C(=O)O [aspirin, acetyl salicylic acid]",PGI2 biosynthesis based on urinary PGI-M,[1]; dermal aspirin,little inhibition of basal or stimulated PGI2 formation; also recorded: only a small fall in PGI2 biosynthesis
same,"Urinary PGI-M excretion, peak decrease (day 4)","[1]; dermal aspirin 250 mg/day, baseline 402±139 pg/mg creatinine",84±4 % of baseline
same,"Urinary PGI-M excretion, peak decrease (day 4)","[1]; dermal aspirin 750 mg/day, baseline 248±73 pg/mg creatinine",76±7 % of baseline
same,Decrease in basal PGI-M excretion by day 4,[1]; [8],24%
same,PGI-M excretion by day 10,[1]; [8],83 % of baseline
same,Inhibition of platelet cyclooxygenase,[2]; aspirin absorbed through the skin,marked and selective inhibition of platelet cyclooxygenase
same,"Serum TXB2 recovery, day 8 after withdrawal",[2]; dermal aspirin 250 mg/day,93±7 % of baseline
same,"Serum TXB2 (fall in), day 10","[2]; dermal aspirin 250 mg/day, n=4, p<0.01",55±11%
same,"Serum TXB2 recovery, day 8 after withdrawal",[2]; dermal aspirin 750 mg/day,65±9 % of baseline
same,Serum TXB2 response,"[2]; dermal aspirin 750 mg/day, n=6",progressive reduction in serum TXB2 in all but one of the volunteers
same,"Serum TXB2, day 10 of application","[2]; dermal aspirin 750 mg/day, n=5 (one non-responder excluded), p=0.003",5±3 % of baseline
same,Decrease in serum TXB2 in the subjects of Example 4,"[2]; dermal aspirin, subjects selected for pharmacokinetics",> 90%
same,"Maximum inhibition of platelet cyclooxygenase, as measured by serum TXB2","[2]; dermal, highest dose, 10 days",exceeded 95%
same,"Urinary TX-M excretion, 8 days following drug withdrawal",[3]; dermal aspirin 750 mg/day,65±9 % of pretreatment value
same,"Urinary TX-M excretion, day 10","[3]; dermal aspirin 750 mg/day, n=5, p=0.002, baseline 498±76 pg/mg creatinine",32±7 % of baseline
same,Urinary TX-M excretion response,[3]; dermal aspirin 250 and 750 mg/day,dose dependent reduction in the urinary excretion of TX-M
same,"Subjects with skin reactions, including erythema and peeling",[4]; dermal aspirin,30 % of subjects
same,Skin reactions with alternate day application,"[4]; dermal, alternate day, up to 8 weeks",without reactions for up to 8 weeks
same,Skin histology,"[4]; one subject, 10 days, 250 mg/day",no histological changes
same,Decrease in thromboxane levels after five daily applications,"[5]; Day 5, subject 3 not considered",at least 50%
same,"Thromboxane level, Day 3",[5]; [9],250 ng/cc
same,"Thromboxane level, Day 4",[5]; [9],199 ng/cc
same,"Thromboxane level, Day 5, prior to the Day 5 dose","[5]; Subject 1, baseline 401, morning of Day 5",105 ng/cc
same,"Thromboxane level, Day 2","[5]; Subject 1, baseline 401, topical aspirin ~9% solution daily, about 24 h after previous application",311 ng/cc
same,"Thromboxane level, Day 10","[5]; two subjects continuing to ten daily applications, subject 1 baseline 401, subject 2 baseline 372",18 ng/cc and 12 ng/cc
same,Suppression of thromboxane levels by Day 10,"[5]; two subjects, ten daily applications",95% and 97%
same,degraded at 24 h,"[6]; 24 hr, room temperature, propylene glycol and isopropyl alcohol or ethanol (1.7:1 v/v), 94 mg/ml, read-out: Salicylate detected in vehicle (aspirin stability)",< 1%
same,Stability of aspirin in vehicle,"[6]; propylene glycol and alcohol vehicle, 24 hr room temperature",stable
same,Incidence of pregnancy-induced hypertension and preeclamptic toxemia,[7],significantly reduce the incidence of pregnancy-induced hypertension and preeclamptic toxemia
